Measured values published in patent US7306804B2 (priority 1998, dated 2007).
Like-named read-outs stand apart in the source and are kept apart here.

Experiments:
[1] = system: anti-peptide antibodies in serum; type: binding, chimpanzee; set-up: key: +, Positive (Titer > 1:100); −, Negative (Titer < 1:100)
[2] = system: anti-peptide antibodies in serum; type: binding, human; set-up: key to Anti-peptide antibody response: +, Positive (titer above control); −, Negative (titer below control)
[3] = system: PBMCs from control and HIV-1 infected chimpanzees; type: cell-based, chimpanzee
[4] = system: PBMCs from normal and HIV-positive individuals; type: cell-based, human

CRIKQIINMWQGVGKAMYA [Peptide 122]
Anti-peptide antibody response [1]: − | Anti-peptide antibody response ([1]; chimpanzee 40, control normal): − | Anti-peptide antibody response ([1]; chimpanzee 73, control normal): − | number of HIV+ individuals with positive antibody titers (<1:1280) [2]: None | Anti-peptide antibody response ([2]; HIV-positive patient MSf): − | Anti-peptide antibody response ([2]; HIV-positive patient MSm): − | Anti-peptide antibody response ([2]; HIV-positive patient eight): − | Anti-peptide antibody response ([2]; HIV-positive patient eleven): − | Anti-peptide antibody response ([2]; HIV-positive patient fifteen): − | Anti-peptide antibody response ([2]; HIV-positive patient five): − | Anti-peptide antibody response ([2]; HIV-positive patient four): − | Anti-peptide antibody response ([2]; HIV-positive patient fourteen): − | Anti-peptide antibody response ([2]; HIV-positive patient nine): − | Anti-peptide antibody response ([2]; HIV-positive patient one): − | Anti-peptide antibody response ([2]; HIV-positive patient seven): − | Anti-peptide antibody response ([2]; HIV-positive patient six): − | Anti-peptide antibody response ([2]; HIV-positive patient ten): − | Anti-peptide antibody response ([2]; HIV-positive patient thirteen): − | Anti-peptide antibody response ([2]; HIV-positive patient three): − | Anti-peptide antibody response ([2]; HIV-positive patient twelve): − | Anti-peptide antibody response ([2]; HIV-positive patient two): − | Anti-peptide antibody response ([2]; Normal-1 (HIV-seronegative)): − | Anti-peptide antibody response ([2]; Normal-2 (HIV-seronegative)): − | T-cell proliferative response ([3]; chimpanzee 40, control normal): − (−, Negative (SI < 2.0)) | T-cell proliferative response ([3]; chimpanzee 62, HIV-infected): − (−, Negative (SI < 2.0)) | T-cell proliferative response ([3]; chimpanzee 69, HIV-infected): + (+, Positive (Stimulation Index [SI] > 2.0)) | T-cell proliferative response ([3]; chimpanzee 73, control normal): − (−, Negative (SI < 2.0)) | T-cell proliferative response ([3]; chimpanzee 80, HIV-infected): + (+, Positive (Stimulation Index [SI] > 2.0)) | T-cell proliferative response ([3]; chimpanzee 99, HIV-infected): − (−, Negative (SI < 2.0)) | T-cell proliferative response ([3]; chimpanzee 100, HIV-infected): + (+, Positive (Stimulation Index [SI] > 2.0)) | T-cell proliferative response ([3]; chimpanzee 139, HIV-infected): − (−, Negative (SI < 2.0)) | T-cell proliferative response ([3]; chimpanzee 175, HIV-infected): + (+, Positive (Stimulation Index [SI] > 2.0)) | T-cell proliferative response ([3]; chimpanzee 247, HIV-infected): − (−, Negative (SI < 2.0)) | T-cell proliferative response ([3]; chimpanzee 310, HIV-infected): − (−, Negative (SI < 2.0)) | number of HIV+ individuals with positive proliferative responses ([4]; 17 HIV+ individuals tested): seven | T-cell proliferative response ([4]; HIV-positive patient MSf): − (−, Negative (SI < 2.0)) | T-cell proliferative response ([4]; HIV-positive patient MSm): − (−, Negative (SI < 2.0)) | T-cell proliferative response ([4]; HIV-positive patient eight): − (−, Negative (SI < 2.0)) | T-cell proliferative response ([4]; HIV-positive patient eleven): − (−, Negative (SI < 2.0)) | T-cell proliferative response ([4]; HIV-positive patient fifteen): + (+, Positive (Stimulation Index [SI] > 2.0)) | T-cell proliferative response ([4]; HIV-positive patient five): − (−, Negative (SI < 2.0)) | T-cell proliferative response ([4]; HIV-positive patient four): − (−, Negative (SI < 2.0)) | T-cell proliferative response ([4]; HIV-positive patient fourteen): + (+, Positive (Stimulation Index [SI] > 2.0)) | T-cell proliferative response ([4]; HIV-positive patient nine): + (+, Positive (Stimulation Index [SI] > 2.0)) | T-cell proliferative response ([4]; HIV-positive patient one): + (+, Positive (Stimulation Index [SI] > 2.0)) | T-cell proliferative response ([4]; HIV-positive patient seven): − (−, Negative (SI < 2.0)) | T-cell proliferative response ([4]; HIV-positive patient six): − (−, Negative (SI < 2.0)) | T-cell proliferative response ([4]; HIV-positive patient ten): + (+, Positive (Stimulation Index [SI] > 2.0)) | T-cell proliferative response ([4]; HIV-positive patient thirteen): − (−, Negative (SI < 2.0)) | T-cell proliferative response ([4]; HIV-positive patient three): + (+, Positive (Stimulation Index [SI] > 2.0)) | T-cell proliferative response ([4]; HIV-positive patient twelve): + (+, Positive (Stimulation Index [SI] > 2.0)) | T-cell proliferative response ([4]; HIV-positive patient two): − (−, Negative (SI < 2.0)) | T-cell proliferative response ([4]; Normal-1 (HIV-seronegative)): − (−, Negative (SI < 2.0)) | T-cell proliferative response ([4]; Normal-2 (HIV-seronegative)): − (−, Negative (SI < 2.0))

phytohemagglutinin [PHA, reference compound]
proliferation ([3]; all nine HIV-infected chimpanzees): high levels of proliferation | cpm values, proliferation ([3]; two control uninfected chimpanzees): 15832-20504 cpm | SI values, proliferation ([4]; HIV+ individuals): 20.3-23.3 | cpm values, proliferation ([4]; HIV+ individuals): 108361-127640 cpm | SI values, proliferation ([4]; normal subjects): 131-183
